Reference: patent US20220211663A1, “NANO CO-DELIVERY OF QUERCETIN AND ALANTOLACTONE PROMOTES ANTI-TUMOR RESPONSE THROUGH SYNERGISTIC IMMUNOGENIC CELL DEATH FOR MICROSATELLITE-STABLE COLORECTAL CANCER” (The University of North Carolina at Chapel Hill, priority 2019, published 2022)
pIC50: −log10 of the molar value.

Experiments:
[1] = tested on: CT26-FL3 cells; test: CRT translocation by immunofluorescence (ICD); type: cell-based, murine; conditions: free Q alone 0.07 μM, 4 h
Protocol: (§1) CT26-FL3 cells were seeded in 35-mm cell culture dishes with glass bottom at the density of 2×10^5 per dish and incubated for 24 h before treatment. The cell culture medium was removed and replenished with different combination of Q and A containing media at the indicated concentrations for 4 h for CRT detection and for 8 h for HMGB1 detection. Cells were fixed and washed 3 times. A primary antibody, anti-CRT antibody (ab2907, 1:500, Abcam), diluted in cold blocking buffer (10% goat serum in PBS), was added for 60 min. After three washes in cold PBS, cells were then incubated for 60 min with the Alexa Fluor® 488 Goat Anti-Rabbit (IgG) (ab150077, 1:500, Abcam) diluted in a cold blocking buffer. Cells were fixed with 4% PFA for 20 min, and DAPI Mounting Medium was added for nuclear staining. For intracellular HMGB1 staining, cells were fixed and washed 3 times. Afterwards, cells were permeabilized with 0.1% Triton X-100 containing blocking buffer for 10 min, and rinsed three times with PBS, and nonspecific binding sites were blocked for 30 min A primary antibody for HMGB1 (ab79823, 1:500, Abcam) was added for 60 min. Cells were then incubated for 60 min with the Alexa Fluor® 488 Goat Anti-Rabbit (IgG) (ab150077, 1:500, Abcam) diluted in a cold blocking buffer. Cells were fixed with 4% PFA for 20 min, and DAPI Mounting Medium was added for nuclear staining. […]

[2] = tested on: CT26-FL3 cells; test: HMGB1 release by immunofluorescence (ICD); type: cell-based, murine
Protocol: as §1

[3] = tested on: CT26-FL3 cells; test: MTT cytotoxicity and combination index (Chou and Talalay); type: cell-based, murine; conditions: Mus musculus, 24 h incubation, read-out: IC50 of Q alone
Protocol: The cytotoxicity of free Q, free A and drugs combination against CT26-FL3 cells were assessed using the MTT (3-[4,5-dimethylthiazol-2-yl]-2,5-diphenyltetrazolium bromide) method. Zhang et al., 2017. Cells were seeded in 96-well plates (5×10^3 cells per well) and incubated for 24 h before treatment. Then the culture medium was withdrawn and fresh medium containing free drugs and drug combination with a series of concentration were added to each well. Following 24-h incubation, cell viability was determined by MTT assay. The synergy of Q and A was evaluated by using the Chou and Talalay method to calculate the combination index (CI). Zhang et al., 2014; Chou et al., 1984. CI was calculated by using the following equation (1): CI=(D)1/(Dx)1+(D)2/(Dx)2 (1) […]

[4] = Maximum concentration of free drug in lecithin suspension (sink condition); type: physicochemical; conditions: lecithin suspension 100 mg/mL
Protocol: The release behaviors of Q and A from QA-M were investigated by a dialysis method. The QA-M (2 mL) was placed into a preswelled dialysis bag (cutting Mw 8000), which was then immersed into empty lecithin suspension (PC-98T, 100 mg/mL, 100 mL) at 37° C. for 72 hours under stirring at a speed of 100 rpm. The lecithin suspension was formed by film-hydration method followed by sonication and the size of this lecithin suspension was around 100 nm. Sink condition was confirmed by determination of the maximum concentration for free Q and A in the lecithin suspension, which was 0.5 mg/mL and 0.8 mg/mL, respectively. At different time points, 1.0 mL of sample was withdrawn from the release medium, mixed with methanol and measured for the Q and A using the HPLC method mentioned above. The release medium was replenished with an equal volume of fresh medium at 37° C. Sink condition was maintained throughout the experiment. All measurements were performed in triplicate, and the mean values and standard deviations are calculated.

[5] = tested on: orthotopic CT26-FL3 tumors; test: Orthotopic colon tumor growth inhibition and survival; type: in vivo, Balb/c mice; conditions: i.v. four times every other day, Q 3 mg/kg, A 9 mg/kg
Protocol: An orthotopic CT26-FL3 colorectal tumor model was established in female Balb/c mice as reported previously. Song et al., 2018. Twenty-eight tumor-bearing mice were divided into seven random groups: PBS, free Q (Q-F), free A (A-F), combination of free Q and A (QA-F), Q-M, A-M and QA-M. Formulations were intravenously injected to mice once every 2 days by total four injections (i.v.) with a Q dose of 3 mg/kg and A dose of 9 mg/kg. Mice in PBS groups were injected with PBS as control. The tumor burden was detected by intraperitoneal (i.p.) injection of 100 μL of D-luciferin (Pierce™, 20 mg/mL) followed by bioluminescent analysis using an IVIS® Kinetics Optical System (Perkin Elmer, Calif.). The tumor growth and body weight of mice were recorded every 2 days. The increment of tumor volume was calculated as luminescence intensities and normalized to the original value on the first day of measurement (Vt/V0). Body weight of mice in each group was documented. Nine days after the last injection, mice were sacrificed and the tumor, heart, liver, spleen, lung and kidney tissues were removed and used for the present study. Blood samples were collected from the orbital plexus into heparinized tubes and then centrifuged at 5,000 rpm for five minutes to separate the plasma. One portion of tumor, spleen and lymph nodes were collected for flow cytometric analysis. […]

Row | Compound | CRT translocation [1] | HMGB1 release ([2]; free Q alone 0.33 μM, 8 h) | release of HMGB1 compared to control group ([2]; single drug: Q 0.33 μM, A 1.3 μM) | pIC50 [3] | maximum concentration in the lecithin suspension [4] | tumor growth [5]
1 | O=c1c(O)c(-c2ccc(O)c(O)c2)oc2cc(O)cc(O)c12 [Q, quercetin] | minimum or undetectable effect | minimum or undetectable effect | undetectable release | 3.83 | 0.5 mg/mL | 
2 | O=c1c(O)c(-c2ccc(O)c(O)c2)oc2cc(O)cc(O)c12 [Q-F, quercetin] |  |  |  |  |  | very similar to that of QA-F
